Measured values: patent US20250368648A1, “MULTI-CYCLIC IRAK AND FLT3 INHIBITING COMPOUNDS AND USES THEREOF” (CHILDREN'S HOSPITAL MEDICAL CENTER, priority 2022, published 2025)

How the values were obtained:
FLT3 D835H = target: T1, FLT3 D835H (Homo sapiens, UniProt P36888, D835H); assay: DiscoverX KINOMEscan competition binding, FLT3 D835H; details: no ATP
T1 construct: purchased DiscoverX (KINOMEscan); host or cells: E. coli (T7 phage) or HEK-293
T1 sequence (P36888 27-993 D835H): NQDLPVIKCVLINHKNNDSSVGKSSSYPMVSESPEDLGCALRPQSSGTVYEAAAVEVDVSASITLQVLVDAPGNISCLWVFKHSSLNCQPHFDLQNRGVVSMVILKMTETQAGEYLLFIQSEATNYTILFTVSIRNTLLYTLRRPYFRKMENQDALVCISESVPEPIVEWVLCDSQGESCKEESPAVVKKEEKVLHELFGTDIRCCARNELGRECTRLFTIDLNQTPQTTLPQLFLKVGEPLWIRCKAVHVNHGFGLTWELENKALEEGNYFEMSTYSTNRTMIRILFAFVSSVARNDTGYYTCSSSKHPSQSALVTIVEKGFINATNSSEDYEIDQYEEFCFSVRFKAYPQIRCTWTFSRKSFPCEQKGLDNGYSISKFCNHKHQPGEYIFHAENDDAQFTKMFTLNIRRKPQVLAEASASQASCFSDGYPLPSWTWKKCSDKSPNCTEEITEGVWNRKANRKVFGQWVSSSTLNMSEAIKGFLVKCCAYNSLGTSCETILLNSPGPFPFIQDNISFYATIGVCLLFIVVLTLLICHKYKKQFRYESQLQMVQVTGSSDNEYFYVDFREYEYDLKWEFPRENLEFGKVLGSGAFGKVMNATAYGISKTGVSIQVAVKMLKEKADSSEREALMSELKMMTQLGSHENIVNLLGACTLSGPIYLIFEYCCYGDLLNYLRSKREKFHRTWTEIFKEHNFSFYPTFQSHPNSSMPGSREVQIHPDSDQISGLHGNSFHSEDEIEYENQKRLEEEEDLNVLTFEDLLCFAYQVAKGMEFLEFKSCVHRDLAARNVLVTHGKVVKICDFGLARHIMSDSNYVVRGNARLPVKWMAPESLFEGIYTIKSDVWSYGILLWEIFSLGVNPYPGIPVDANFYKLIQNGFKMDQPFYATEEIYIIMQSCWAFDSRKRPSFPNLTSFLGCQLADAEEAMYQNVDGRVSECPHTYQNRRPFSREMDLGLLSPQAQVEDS
From the text: (§1) Kinase binding data were obtained for various exemplary compounds prepared according to Examples 2-15 using the DiscoverX KINOMEscan® active site-directed competition binding site-directed assay protocol described below. […] As a result, the data report thermodynamic interaction affinities (Kd values), rather than IC50 values that are dependent on ATP concentrations. The assay uses a DNA-tagged version of the protein kinase, and an immobilized ligand bound to a solid support. Compounds that directly or indirectly prevent kinase binding to the immobilized ligand reduce the amount of kinase captured on the solid support, which is detected using an ultra-sensitive qPCR method. Affinity constants reported from the assay have been reported to be independent of the immobilized ligand used that is coupled to the solid support (See supplemental information in Fabian, M. A. et. al., (2005) Nat. […] Wodicka, L. […] Biol. 17, 1241-1249.) Kinase-tagged T7 phage strains were prepared in an E. coli host derived from the BL21 strain. E. coli were grown to log-phase and infected with T7 phage and incubated with shaking at 32° C. until lysis. […] Kds were determined using an 11-point 3-fold compound dilution series with three DMSO control points. […] The kinase concentration in the eluates was measured by qPCR. Binding constants (Kds) were calculated with a standard dose-response curve using the Hill equation. […]

IRAK4 = target: T2, IRAK4 (Homo sapiens, UniProt Q9NWZ3); assay: DiscoverX KINOMEscan competition binding, IRAK4; parameters: purchased RBC (Reaction Biology) HotSpot assay; details: no ATP
T2 sequence (Q9NWZ3 1-460): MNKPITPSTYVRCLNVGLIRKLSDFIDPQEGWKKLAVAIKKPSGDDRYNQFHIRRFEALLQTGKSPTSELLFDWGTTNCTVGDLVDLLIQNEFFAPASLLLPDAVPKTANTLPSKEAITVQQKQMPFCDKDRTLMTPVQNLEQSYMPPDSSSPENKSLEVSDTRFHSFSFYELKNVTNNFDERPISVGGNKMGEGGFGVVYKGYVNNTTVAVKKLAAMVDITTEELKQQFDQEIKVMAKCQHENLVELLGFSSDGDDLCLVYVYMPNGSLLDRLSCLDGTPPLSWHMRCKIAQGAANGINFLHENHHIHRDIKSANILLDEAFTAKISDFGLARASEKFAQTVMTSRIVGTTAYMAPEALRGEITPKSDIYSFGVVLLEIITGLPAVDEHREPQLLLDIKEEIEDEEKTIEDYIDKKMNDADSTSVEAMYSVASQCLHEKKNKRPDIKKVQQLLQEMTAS
From the text: as §1

## COc1cc2ncc(-c3nc(N[C@H]4CNCC[C@@H]4F)c(F)cc3F)n2nc1C1CCC1 [Compound 15a, 6-(6-cyclobutyl-7-methoxyimidazo[1,2-b]pyridazin-3-yl)-3,5-difluoro-N-((3S,4S)-4-fluoropiperidin-3-yl)pyridin-2-amine]
FLT3 D835H
  Kd: < 0.17 nM
IRAK4
  Kd: 0.32 nM
